In patent publication US7763439B2, “Two-photon absorbing dipyrrometheneboron difluoride dyes and their applications” (Arctic Diagnostics Oy, priority 2001, dated 2010):

Assays:
[1] = Single pulse effect: z-response, 20% to 80% fluorescence intensity distance in dye solution; type: physicochemical; settings: dye solution between two microscope slides; two-photon excitation
Description: (§1) FIG. 1 is a plot of two-photon excitations vs. illumination intensity. At low illumination intensities (A) excitation follows a quadratic dependence of the illumination intensity. In order to maximise the two-photon excited fluorescence a dye should be excited close to saturation level (B). At saturation level (C) almost all of the dye molecules become excited. FIG. 2a present alkyl substituted dipyrrometheneboron difluoride dyes described in examples 1-3 as compounds 1-3. FIGS. 2b and 2c present heteroaryl substituted dipyrrometheneboron difluoride dyes described in examples 4-9 as compounds 4-9. X^+ is a cationic counterion. FIG. 2d presents phenyl substituted dipyrrometheneboron difluoride dyes described in examples 10 and 11 as compounds 10 and 11. X^+ is a cationic counterion. FIGS. 2e and 2f present phenylethenyl substituted dipyrromethene-boron difluoride dyes described in examples 12 and 13 as compounds 12 and 13. X^+ is a cationic counterion. FIGS. 2g and 2h present thienyl substituted dipyrrometheneboron difluoride dyes with amino-, arylamino-, maleimide- and isothiocyanate reactive groups described in examples 14-17 as compounds 14-17. X^+ is a cationic counterion. FIG. 3 presents a linker compound 18 that is used to increase solubility of the dyes in aqueous solutions. X^+ is a cationic counter-ion. FIG. 4 is a plot of two-photon fluorescence signal vs. analyte (AFP) concentration in an immunoassay based on two-photon fluorescence as described in example 21. The AFP concentration 0 ng/ml is presented as a concentration of 0.1 ng/ml because of the logarithmic scale used in FIG. 4. FIG. 5 is an optical scheme of the instrument used in two-photon fluorescence measurements. A passively Q-switched Nd:YAG microchip laser 1 is used as an illumination source for two-photon excited fluorescence. The wavelength of the laser is 1064 nm, the pulse duration is 1 ns and the repetition rate is 20 kHz. The naturally diverging laser light beam is directed with a dichroich mirror 2 through an optical scanner unit 3 to the entrance aperture of the objective lens 4. The illumination at the entrance aperture is gaussian filling about 70% of the full aperture. The objective lens then focuses the illumination light into a special cuvette 5 that has a thin optical bottom (thickness 0.2 mm). The average optical output power reaching the sample is 50 mW. The size of the focal volume is about 1 femtoliter. The two-photon excited fluorescence signal in the range 540-700 nm is collected from the full aperture of the objective lens 4 and directed through the dichroich mirror 2 and the band pass filter 6 to the photomultiplier tube 7. In case of particle measurements, both the two-photon excited fluorescence light and the microparticle back-scattered (reflected) laser light are measured. The dichroich mirror 2 and the 2% beam splitting window 8 deflect the back-scattered light to the pinhole 9 making the detection of the scattering signal confocal. The detector for the scattering signal is a near infrared GaAs pin photodiode 10. The particles are continuously tracked by using a three-dimensional beam scanner 3. The xy-scanner is optomechanical and is positioned as close to the entrance aperture of the objective lens as possible. […] Optical pressure caused by the illuminating laser beam traps the particle and guides it through the centre of laser beam focus. The fluorescence signal is measured while the particle is in focus i.e. the back scattering signal exceeds the preset threshold. In addition to xy-scanning a further z-scanning movement is performed by moving the objective slowly in the axial direction. The amplitude of this movement is 150 μm and the movement is not stopped for particle measurement. Despite of slow z-scanning the particle remains in the focus on basis of optical trapping forces.
The direct measurement of quenching by single pulse effect is difficult. […]

[2] = Two-photon fluorescence yields of dyes in solution, laser with high two-photon excitation efficiency; type: physicochemical; settings: 100 nM dye in ethanol (R-PE in PBS pH 7.4); 1064 nm Nd:YAG microchip laser; normalised to Rhodamine B (100)
Description: as §1
The two-photon fluorescence yields were measured using experimental apparatus shown schematically in FIG. 5. […]

Compound | 20% to 80% fluorescence intensity distance values [1] [a.u.] | Normalised two-photon fluorescence yield [2] [a.u.]
4,4-difluoro-1,3,5,7-tetramethyl-6-carboxyethyl-4-bora-3a,4a-diaza-s-indacene-2-propionic acid succinimidylester [Compound 3] | 11.5 | 18
O=C(O)CCC1=[N+]2C(=Cc3c(-c4ccccc4)cc(-c4ccccc4)n3[B-]2(F)F)C=C1 [BODIPY 530/550] | 12.2 | 66
O=C(O)CCC1=[N+]2C(=Cc3ccc(-c4cccs4)n3[B-]2(F)F)C=C1 [BODIPY 558/568] | 13.7 | 101
CCN(CC)c1ccc2c(-c3ccccc3C(=O)O)c3ccc(=[N+](CC)CC)cc-3oc2c1.[Cl-] [Rhodamine B] | 16.5 | 100
Glu-Tau-succinimide derivative of 4,4-difluoro-5-(2-thienyl)-1,3-dimethyl-4-bora-3a,4a-diaza-s-indacene-2-propionic acid [Compound 8] | 12.6 | 219
R-phycoerythrin [R-PE] | 21.5 | 618
